The structures appear in SMILES notation.

In the experiment the target is human GPR40 receptor (Homo sapiens, UniProt O14842). Kind of experiment: IP1 accumulation measurements using the IPOne assay system (1321N1 cells stably expressing human GPR40 receptor). The experiment is classed as cell-based. The note with it: 1321N1 cells expressing human GPR40, 1 h stimulation at 37° C. As for the experimental part: IP1 accumulation measurements using the IPOne assay system—1321N1 cells stably expressing human GPR40 receptor (Euroscreen, Belgium) are seeded 24 h before the assay in white 384-well plates in culture medium containing 10% FCS, 1% Na-Pyruvate and 400 μg/mL G418. IP1 is assayed according to the manufacturer's description (Cisbio Bioassays, France). In brief, the assay is started by substitution of the culture medium by stimulation buffer (Hepes 10 mM, CaCl2 1 mM, MgCl2 0.5 mM, KCl 4.2 mM, NaCl 146 mM, glucose 5.5 mM and LiCl 50 mM, pH 7.4). Cells are stimulated for 1 h at 37° C., 5% CO2 by addition of the compounds that are diluted in stimulation buffer containing LiCl. Assays are stopped by adding HTRF-conjugates (IP1-d2 and Anti-IP1 cryptate Tb) and lysis buffer, provided by the manufacturer. After an incubation time of 1 h at room temperature plates are measured using an EnVision™, Perkin Elmer. The obtained fluorescence ratios at 665/615 […] are then used to calculate the pEC50 values using Assay Explorer 3.3 Software (Accelrys, Inc.) by interpolation using an IP1 reference curve and subsequent sigmoidal curve fitting allowing for a variable hill slope.
human GPR40 receptor, sequence (O14842 whole entry): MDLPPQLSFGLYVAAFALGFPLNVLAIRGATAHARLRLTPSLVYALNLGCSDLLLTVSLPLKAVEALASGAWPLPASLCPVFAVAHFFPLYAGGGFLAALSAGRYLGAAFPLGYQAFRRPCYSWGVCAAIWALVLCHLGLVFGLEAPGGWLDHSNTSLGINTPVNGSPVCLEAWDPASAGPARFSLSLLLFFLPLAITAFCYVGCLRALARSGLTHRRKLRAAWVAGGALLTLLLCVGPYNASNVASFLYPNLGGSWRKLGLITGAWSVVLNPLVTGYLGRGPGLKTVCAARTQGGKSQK
`Cc1cc(-c2nnn(C)n2)cc(C)c1-c1cccc2c1CC[C@H]2Nc1ccc([C@@H]2C[C@H]2C(=O)O)cn1` [Example 9, (1R,2R)-2-(6-{(R)-4-[2,6-Dimethyl-4-(2-methyl-2H-tetrazol-5-yl)-phenyl]-indan-1-ylamino}-pyridin-3-yl)-cyclopropanecarboxylic acid] yielded an EC50 of 259 nM.

`Cc1cc(OCCC(C)(C)O)cc(C)c1-c1cccc2c1CC[C@H]2Nc1ccc([C@@H]2C[C@H]2C(=O)O)cn1` [Example 10, (1R,2R)-2-(6-{(R)-4-[4-(3-Hydroxy-3-methyl-butoxy)-2,6-dimethyl-phenyl]-indan-1-ylamino}-pyridin-3-yl)-cyclopropanecarboxylic acid] returned an EC50 of 497 nM. This EC50 is about 1.9-fold higher than that of the compound before. For the compound `Cc1cc(OCCC(C)(C)O)cc(C)c1-c1ccc(F)c2c1CC[C@H]2Nc1ccc([C@@H]2C[C@H]2C(=O)O)cn1` [Example 12, (1R,2R)-2-(6-{(R)-7-Fluoro-4-[4-(3-hydroxy-3-methyl-butoxy)-2,6-dimethyl-phenyl]-indan-1-ylamino}-pyridin-3-yl)-cyclopropanecarboxylic acid], the EC50 was found to be 568 nM. The EC50 values of the last two compounds are within 1.5-fold of each other. Under `Cc1cc(OC2CCOCC2)cc(C)c1-c1cccc2c1CC[C@H]2Nc1ccc([C@H]2C[C@@H]2C(=O)O)cn1` [Example 77] stands 20 nM; under `Cc1cc(OCC(C)(C)O)cc(C)c1-c1cccc2c1CC[C@H]2Nc1ccc([C@H]2C[C@@H]2C(=O)O)cn1` [Example 79], 23 nM; under `Cc1cc(OCC(C)(C)C#N)cc(C)c1-c1cccc2c1CC[C@H]2Nc1ccc([C@H]2C[C@@H]2C(=O)O)cn1` [Example 80], 22 nM. For `Cc1cc(-c2ccn(C)c(=O)c2)cc(C)c1-c1cccc2c1CC[C@H]2Nc1ccc([C@H]2C[C@@H]2C(=O)O)cn1` [Example 81] the value was 8 nM; for `Cc1cc(-c2ccc(=O)n(C)c2)cc(C)c1-c1cccc2c1CC[C@H]2Nc1ccc([C@H]2C[C@@H]2C(=O)O)cn1` [Example 82], 18 nM; for `Cc1cc(-c2cc(=O)n(C)cn2)cc(C)c1-c1cccc2c1CC[C@H]2Nc1ccc([C@H]2C[C@@H]2C(=O)O)cn1` [Example 83], 8 nM. For `COc1cc(F)c(-c2cccc3c2CC[C@H]3Nc2ccc([C@H]3C[C@@H]3C(=O)O)cn2)c(F)c1` [Example 84] the value was 212 nM; for `O=C(O)[C@H]1C[C@@H]1c1ccc(N[C@@H]2CCc3c(-c4ccccc4C(F)(F)F)cccc32)nc1` [Example 85], 91 nM; for `Cc1cc(C(=O)N(C)C)cc(C)c1-c1cccc2c1CC[C@H]2Nc1ccc([C@H]2C[C@@H]2C(=O)O)cn1` [Example 86], 174 nM.

The EC50 is the concentration giving half of the maximal effect.

For the origin of these results see patent US9617251B2, “Indanylaminopyridylcyclopropanecarboxylic acids, pharmaceutical compositions and uses thereof” (BOEHRINGER INGELHEIM INTERNATIONAL GMBH, priority 2015, dated 2017).
